Source: patent US20110257732A1, “STENTS HAVING CONTROLLED ELUTION” (Micell Technologies, Inc., priority 2010, published 2011)

Tests used:
[1] = Sirolimus remaining on and released from explanted stents (Example 34); type: in vivo, porcine; conditions: for Stent-associated sirolimus, Drug Released, Mean: calculated from Day 0 baseline measurement
Protocol: (§1) Pharmacokinetic studies were performed on coated stents prepared and implanted as noted in Example 32. […] The coating encapsuled each of the stents.
(§2) Complete balloon deflation was verified with fluoroscopy.
(§3) Subjects were euthanized at the testing time points, and the tissue adjacent the stent (for non-limiting example, tissue surrounding the stent—referred to generally as arterial tissue) was extracted for analysis of the amount of pharmaceutical agent therein. Stents were also analyzed for the amount of pharmaceutical agent remaining on the coated stent at each time point. Testing methods as noted elsewhere herein were used to determine the amount of pharmaceutical agent remaining on the stent or in the tissue, and/or are methods that would be known to one of skill in the art.

[2] = Stented artery sirolimus concentration (Example 34); type: in vivo, porcine; conditions: for Pharmaceutical agent released from the coated stent recovered in the analyzed arterial tissue: based on 135 micrograms on the original stent at time 0
Protocol: as §1, §2, §3

[3] = Whole blood rapamycin concentration after coated stent implantation, LC-MS/MS (Example 32); conditions: every time point 5 minutes to day 180, every subject; one coated stent (135 micrograms sirolimus) per porcine subject
Protocol: Blood serum levels of porcine subjects having coated stents implanted were tested at multiple time points. The coated stents implanted were prepared as follows: coated stents for the study comprise a coating that was deposited on the stent by deposition of rapamycin in dry powder form by RESS methods and equipment described herein and deposition of polymer particles by RESS methods and equipment described herein. A PDPDP (Polymer, sinter, Drug, Polymer, sinter, Drug, Polymer, sinter) coating sequence was used wherein the polymer was 50:50 PLGA, and the drug was rapamycin. The sinter step was performed at 100° C./150 psi/10 min after each “P” (or polymer) layer. […] The coating was about 5-15 micrometers thick on each stent, and comprised a thicker coating on the abluminal surface (coating bias). […]
Multiple batches of coated stents were created, implanted in the porcine subjects, one coated stent per subject, and each subject's blood serum levels were tested at multiple time points. […] The balloon was then inflated at a steady rate to a pressure sufficient to target a visually assessed balloon-artery ratio of 1.1:1-1.2:1. Confirmation of this balloon-artery ratio was made when the angiographic images were quantitatively assessed. […]
The whole blood sample was tested for rapamycin concentration using LC-MS/MS. Samples were quantified for rapamycin using ascomycin as the internal standard. […]

[4] = Day 60, porcine coronary artery
[5] = Day 90, porcine coronary artery

CO[C@H]1C[C@@H]2CC[C@@H](C)[C@@](O)(O2)C(=O)C(=O)N2CCCC[C@H]2C(=O)O[C@H]([C@H](C)C[C@@H]2CC[C@@H](O)[C@H](OC)C2)CC(=O)[C@H](C)/C=C(\C)[C@@H](O)[C@@H](OC)C(=O)[C@H](C)C[C@H](C)/C=C/C=C/C=C/1C [rapamycin]
Stent-associated sirolimus, Drug Released, Mean ([1]; Day 0 baseline): 0 µg
Stent-associated sirolimus, Drug Remaining, Mean ([1]; Day 0 baseline, coated stent (PDPDP, 50:50 PLGA, 135 micrograms sirolimus)): 137.00 µg
Stent-associated sirolimus, Drug Remaining, Mean ([1]; Day 1, coated stent (PDPDP, 50:50 PLGA, 135 micrograms sirolimus) in porcine coronary artery): 137.00 µg
Stent-associated sirolimus, Drug Released, Mean ([1]; Day 1, porcine coronary artery): 1.67 µg
Stent-associated sirolimus, Drug Remaining, Mean ([1]; Day 3, coated stent (PDPDP, 50:50 PLGA, 135 micrograms sirolimus) in porcine coronary artery): 135.83 µg
Stent-associated sirolimus, Drug Released, Mean ([1]; Day 3, porcine coronary artery): 2.83 µg
Stent-associated sirolimus, Drug Remaining, Mean ([1]; Day 7, coated stent (PDPDP, 50:50 PLGA, 135 micrograms sirolimus) in porcine coronary artery): 127.83 µg
Stent-associated sirolimus, Drug Released, Mean ([1]; Day 7, porcine coronary artery): 9.17 µg
Stent-associated sirolimus, Drug Remaining, Mean ([1]; Day 14, coated stent (PDPDP, 50:50 PLGA, 135 micrograms sirolimus) in porcine coronary artery): 119.67 µg
Stent-associated sirolimus, Drug Released, Mean ([1]; Day 14, porcine coronary artery): 17.33 µg
Stent-associated sirolimus, Drug Remaining, Mean ([1]; Day 21, coated stent (PDPDP, 50:50 PLGA, 135 micrograms sirolimus) in porcine coronary artery): 103.68 µg
Stent-associated sirolimus, Drug Released, Mean ([1]; Day 21, porcine coronary artery): 33.32 µg
Stent-associated sirolimus, Drug Remaining, Mean ([1]; Day 30, coated stent (PDPDP, 50:50 PLGA, 135 micrograms sirolimus) in porcine coronary artery): 65.25 µg
Stent-associated sirolimus, Drug Released, Mean ([1]; Day 30, porcine coronary artery): 71.75 µg
Stent-associated sirolimus, Drug Remaining, Mean ([1]; Day 45, coated stent (PDPDP, 50:50 PLGA, 135 micrograms sirolimus) in porcine coronary artery): 3.89 µg
Stent-associated sirolimus, Drug Released, Mean ([1]; Day 45, porcine coronary artery): 133.12 µg
Stent-associated sirolimus, Drug Remaining, Mean ([1]; Day 60, coated stent (PDPDP, 50:50 PLGA, 135 micrograms sirolimus) in porcine coronary artery): 1.59 µg
Average incremental stent sirolimus elution (loss) rate [1, 4]: 0.15 ± 0.04 µg/day
Stent-associated sirolimus, Drug Released, Mean [1, 4]: 135.41 µg
Stent-associated sirolimus, Drug Remaining, Mean ([1]; Day 90, coated stent (PDPDP, 50:50 PLGA, 135 micrograms sirolimus) in porcine coronary artery): 0.11 µg
Average incremental stent sirolimus elution (loss) rate [1, 5]: 0.05 ± 0.00 µg/day
Stent-associated sirolimus, Drug Released, Mean [1, 5]: 136.89 µg
Average incremental stent sirolimus elution (loss) rate ([1]; peak around day 30, porcine coronary artery): 4.27 ± 1.69 µg/day
Pharmaceutical agent released from the coated stent recovered in the analyzed arterial tissue ([2]; at day 30): about 60%
Pharmaceutical agent released from the coated stent recovered in the analyzed arterial tissue ([2]; between days 3 and 60): about 40%
concentration at 1 day ([2]; pig, stented arterial tissue, other: coated stent implanted in coronary artery, 135 micrograms per stent, day 1, porcine, coated stent 135 micrograms sirolimus, read-out: Stented artery sirolimus concentration (tissue within stented segments)): 19600 ng/g
concentration at 3 day ([2]; pig, stented arterial tissue, other: coated stent implanted in coronary artery, 135 micrograms per stent, day 3, porcine, coated stent 135 micrograms sirolimus, read-out: Stented artery sirolimus concentration (tissue within stented segments)): 21400 ng/g
concentration at 7 day ([2]; pig, stented arterial tissue, other: coated stent implanted in coronary artery, 135 micrograms per stent, day 7, porcine, coated stent 135 micrograms sirolimus, read-out: Stented artery sirolimus concentration (tissue within stented segments)): 42200 ng/g
concentration at 14 day ([2]; pig, stented arterial tissue, other: coated stent implanted in coronary artery, 135 micrograms per stent, day 14, porcine, coated stent 135 micrograms sirolimus, read-out: Stented artery sirolimus concentration (tissue within stented segments)): 55900 ng/g
concentration at 21 day ([2]; pig, stented arterial tissue, other: coated stent implanted in coronary artery, 135 micrograms per stent, day 21, porcine, coated stent 135 micrograms sirolimus, read-out: Stented artery sirolimus concentration (tissue within stented segments)): 173000 ng/g
concentration at 30 day ([2]; pig, stented arterial tissue, other: coated stent implanted in coronary artery, 135 micrograms per stent, day 30, porcine, coated stent 135 micrograms sirolimus, read-out: Stented artery sirolimus concentration (tissue within stented segments)): 565000 ng/g
concentration at 45 day ([2]; pig, stented arterial tissue, other: coated stent implanted in coronary artery, 135 micrograms per stent, day 45, porcine, coated stent 135 micrograms sirolimus, read-out: Stented artery sirolimus concentration (tissue within stented segments)): 582000 ng/g
concentration at 60 day ([2]; pig, stented arterial tissue, other: coated stent implanted in coronary artery, 135 micrograms per stent, day 60, porcine, coated stent 135 micrograms sirolimus, read-out: Stented artery sirolimus concentration (tissue within stented segments)): 532000 ng/g
concentration at 90 day ([2]; pig, stented arterial tissue, other: coated stent implanted in coronary artery, 135 micrograms per stent, day 90, porcine, coated stent 135 micrograms sirolimus, read-out: Stented artery sirolimus concentration (tissue within stented segments)): 251000 ng/g
Concentration of rapamycin in whole blood (below quantifiable limit) [3]: < 0.100 ng/mL
